{"source": "paper PMC6934184", "about": "“Selective DNA-PKcs inhibition extends the therapeutic index of localized radiotherapy and chemotherapy” (The Journal of Clinical Investigation, 2019)", "biological_target": "T1, GRK4 (Homo sapiens, UniProt P32298)", "T1 construct": "purchased Thermo Fisher Scientific (Life Technologies) SelectScreen", "T1 sequence (P32298 whole entry)": "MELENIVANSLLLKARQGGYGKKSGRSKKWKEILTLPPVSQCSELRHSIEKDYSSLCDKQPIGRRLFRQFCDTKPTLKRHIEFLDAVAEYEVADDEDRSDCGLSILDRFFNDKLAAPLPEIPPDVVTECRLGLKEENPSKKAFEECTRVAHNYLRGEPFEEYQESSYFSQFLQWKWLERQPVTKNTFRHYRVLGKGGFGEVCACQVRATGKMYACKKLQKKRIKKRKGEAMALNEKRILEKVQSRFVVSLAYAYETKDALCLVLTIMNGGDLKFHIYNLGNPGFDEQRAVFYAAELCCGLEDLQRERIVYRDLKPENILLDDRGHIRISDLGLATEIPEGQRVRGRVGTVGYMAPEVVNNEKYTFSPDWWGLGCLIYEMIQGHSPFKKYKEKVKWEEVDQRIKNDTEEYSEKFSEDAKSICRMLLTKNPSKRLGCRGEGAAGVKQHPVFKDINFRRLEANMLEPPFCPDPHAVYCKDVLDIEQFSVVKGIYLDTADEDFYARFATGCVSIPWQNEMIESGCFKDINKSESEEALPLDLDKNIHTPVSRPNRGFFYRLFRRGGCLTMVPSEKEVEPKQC", "assay": "SelectScreen Z'LYTE", "assay_type": "biochemical", "outline": "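NU5455 was profiled across the SelectScreen Broad panel of kinase activity and binding assays. Z'LYTE reactions such as CSF1R ran at apparent Km ATP, while the Adapta CAMK1 assay used ATP listed as 10. Values are given as percent.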", "data": [{"smiles": "CN(C(=O)CN1CCOCC1)c1ccc2sc3c(-c4cccc5c(=O)cc(N6CC7CCC(C6)O7)oc45)cccc3c2c1", "note": "[NU5455]", "values": [{"measurement": "inhibition at 1 µM", "result": 3.5, "unit": "%"}]}]}
